Laboratory results as given in patent EP0326331B1, “Substituted quinolines and cinnolines” (Dow AgroSciences LLC, priority 1988, dated 1989).

Assays:
Type in all cases: in vivo
[1] = tested on: Pseudoperonospora cubensis (downy mildew); experiment: Test 1 greenhouse foliar spray screen, downy mildew on squash; conditions: Test 1, foliar spray on squash, disease control rating at 400 ppm / 100 ppm; for pest or weed control at 400 ppm: Pseudoperonospora cubensis, foliar, read-out: DOWN MDEW
[2] = tested on: southern armyworm (Spodopetra eridania Cramer); experiment: Mite/insect screen, SAW; conditions: percent mortality, foliar spray on squash; for mortality at 400 ppm / mortality at 200 ppm: Spodoptera eridania, foliar, read-out: SAW RESULTS %
Method in brief: (§1)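 Formulation: acetone/alcohol 50:50 + sulfonate/nonionic emulsifiers, water-diluted to indicated concs. Spray both leaf surfaces to runoff, 10 psi; dry 1 h. Armyworm: 2 excised uninfested leaves in Petri dish. Score % mortality after standard exposure.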

[3] = tested on: Puccinia recondita tritici (leaf rust); experiment: Test 1 greenhouse foliar spray screen, leaf rust on wheat; conditions: Test 1, foliar spray on wheat, disease control rating at 400 ppm / 100 ppm; for pest or weed control at 400 ppm: Puccinia recondita, foliar
[4] = tested on: Botrytis cinerea (gray mold); experiment: Test 1 greenhouse foliar spray screen, gray mold on grape berries; conditions: Test 1, spray on grape berries, disease control rating at 400 ppm / 100 ppm; for pest or weed control at 400 ppm: Botrytis cinerea, foliar
[5] = tested on: Twospotted spider mites (Tetranychus urticae Koch); experiment: Mite/insect screen, SM; conditions: percent mortality, foliar spray on squash; for mortality at 400 ppm / mortality at 200 ppm: Tetranychus urticae, foliar, read-out: SM RESULTS %
Method in brief: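 Compounds dissolved in 50:50 acetone/alcohol containing sulfonate/nonionic emulsifier blends, then diluted with water to the indicated concentrations. Leaves sprayed on both surfaces to runoff at 10 psi and dried one hour. Percent mortality scored after standard exposure periods.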

[6] = tested on: Pyricularia oryzae (rice blast); experiment: whole plant or invertebrate; conditions: disease control rating at 400 ppm / 100 ppm; for pest or weed control at 400 ppm: Pyricularia oryzae, foliar, read-out: RICE BLAST, Test 1, foliar spray on rice
[7] = tested on: melon aphids (Aphis gossypii Glover); experiment: Mite/insect screen, MA; conditions: percent mortality, foliar spray on squash; for mortality at 400 ppm / mortality at 200 ppm: Aphis gossypii, foliar, read-out: MA RESULTS %
Method in brief: as §1

corn rootworm = experiment: Mite/insect screen, CRW; conditions: percent mortality; for mortality at 24 ppm / mortality at 12 ppm: read-out: CRW RESULTS %
Method in brief: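 Percent mortality is evaluated once the standard exposure period ends. Test material is applied as a water dilution of an acetone/alcohol (50:50) stock carrying two sulfonate/nonionic emulsifiers (23 and 13 g per liter).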

[8] = tested on: Erysiphe graminis tritici (powdery mildew); experiment: Test 1 greenhouse foliar spray screen, powdery mildew on wheat; conditions: Test 1, foliar spray on wheat, disease control rating at 400 ppm / 100 ppm; for pest or weed control at 400 ppm: Blumeria graminis, foliar, read-out: POWD MDEW

Structure (SMILES) | pest or weed control at 400 ppm [1] [%] | mortality at 400 ppm ([2]; rate 400 ppm) [%] | pest or weed control at 400 ppm [3] [%] | pest or weed control at 400 ppm [4] [%] | mortality at 400 ppm ([5]; rate 400 ppm) [%] | pest or weed control at 400 ppm [6] [%] | mortality at 400 ppm ([7]; rate 400 ppm) [%] | mortality at 24 ppm (corn rootworm; CRW rate 24.00 ppm) [%] | pest or weed control at 400 ppm [8] [%] | mortality at 200 ppm ([2]; rate 200 ppm) [%] | mortality at 200 ppm ([5]; rate 200 ppm) [%] | mortality at 200 ppm ([7]; rate 200 ppm) [%] | mortality at 12 ppm (corn rootworm; CRW rate 12.00 ppm) [%] | other results
CC(C)(C)c1ccc(CCCOc2ccnc3c(F)cccc23)cc1 [Example 241, 8-fluoro-4-[3-[4-(t-butyl)phenyl]propoxy]quinoline] | 0 to 19 | 0 | 0 to 19 | 0 to 19 | 0 | 0 to 19 | 0 | 0 | 0 to 19 | – | – | – | – | –
Clc1ccc(CCCOc2ccnc3c(Cl)cccc23)cc1 [Example 242, 8-chloro-4-[3-(4-chlorophenyl)propoxy]quinoline] | 0 to 19 | 0 | 0 to 19 | 0 to 19 | 0 | 0 to 19 | 0 | 0 | 0 to 19 | 0 | 0 | 0 | 0 | –
Fc1cccc2c(OCC=Cc3ccccc3)ccnc12 [Example 243, 8-fluoro-4-[(3-phenyl-2-propenyl)oxy]quinoline] | 0 to 19 | 0 | 0 to 19 | 0 to 19 | 0 | 0 to 19 | 0 | 0 | 0 to 19 | – | – | – | – | –
Cc1cc(OCCC2CCCCC2)c2c(Cl)ccc(C)c2n1 [Example 248, 5-chloro-4-(2-cyclohexylethoxy)-2,8-dimethylquinoline] | 0 to 19 | 0 | 0 to 19 | 0 to 19 | 0 | 0 to 19 | 0 | 0 | 20 to 89 | – | – | – | – | –
Cc1cc(OCCC2CCCCC2)c2cc(F)ccc2n1 [Example 249, 6-fluoro-4-(2-cyclohexylethoxy)-2-methylquinoline] | 0 to 19 | 0 | 0 to 19 | 0 to 19 | 0 | 0 to 19 | 0 | 0 | 0 to 19 | – | – | – | – | –
Cc1ccc(CCOc2cc(OCCc3ccc(C)cc3)c3cccc(F)c3n2)cc1 [Example 250, 8-fluoro-2,4-bis[2-(4-methylphenyl)ethoxy]quinoline] | 20 to 89 | 0 | 20 to 89 | 0 to 19 | 0 | 0 to 19 | 0 | 0 | 0 to 19 | – | – | – | – | –
FC(F)(F)c1ccc2c(CCCc3ccccc3)ccnc2c1 [Example 254, 4-(3-phenylpropyl)-7-(trifluoromethyl)quinoline] | 0 to 19 | 0 | 0 to 19 | 0 to 19 | 0 | 90 to 100 | 0 | 0 | 90 to 100 | – | – | – | – | –
Clc1cccc2c(CCCc3ccccc3)ccnc12 [Example 255, 8-chloro-4-(3-phenylpropyl)quinoline] | 20 to 89 | 0 | 90 to 100 | 0 to 19 | 0 | 90 to 100 | 0 | 0 | 20 to 89 | – | – | – | – | –
Fc1cccc2c(CCCc3ccc(-c4ccccc4)cc3)ccnc12 [Example 257, 4-[3-(1,1'-biphenyl)-4-ylpropyl]-8-fluoroquinoline] | 90 to 100 | 0 | 90 to 100 | 0 to 19 | 0 | 20 to 89 | 0 | 0 | 90 to 100 | – | – | – | – | –
CC(C)(C)c1ccc(CCOc2ccnc3ccccc23)cc1 [Example 262, 4-[2-[4-(t-butyl)phenyl]ethoxy]quinoline] | 90 to 100 | 0 | 90 to 100 | 0 to 19 | 100 | 90 to 100 | 100 | 0 | 0 to 19 | 0 | 100 | 100 | 0 | –
Fc1cccc2c(OCCc3ccc(-c4ccccc4)cc3)ccnc12 [Example 263, 8-fluoro-4-[2-(1,1'-biphenyl)-4-yl-ethoxy]quinoline] | – | – | – | – | – | – | – | – | – | – | – | – | – | DOWN MDEW [1]: - (0-19% control at 400 ppm); SAW RESULTS % ([2]; rate 200 ppm): 0%; SAW RESULTS % ([2]; rate 400 ppm): 0%; LEAF RUST [3]: + (20-89% control at 400 ppm); GRAY MOLD [4]: - (0-19% control at 400 ppm); SM RESULTS % ([5]; rate 200 ppm): 0%; SM RESULTS % ([5]; rate 400 ppm): 0%; RICE BLAST ([6]; Test 1, foliar spray on rice): + (20-89% control at 400 ppm); MA RESULTS % ([7]; rate 200 ppm): 0%; MA RESULTS % ([7]; rate 400 ppm): 0%; CRW RESULTS % (corn rootworm; CRW rate 12.00 ppm): 0%; CRW RESULTS % (corn rootworm; CRW rate 24.00 ppm): 0%; POWD MDEW [8]: + (20-89% control at 400 ppm)
OCCc1ccc(CCOc2ccnc3c(F)cccc23)cc1 [Example 265, 8-fluoro-4-[2-[4-(2-hydroxyethyl)phenyl]ethoxy]quinoline] | 0 to 19 | 0 | 90 to 100 | 0 to 19 | 0 | 90 to 100 | 0 | 0 | 0 to 19 | 0 | 0 | 0 | 0 | –
COC(C)CCOc1ccnc2c(F)cccc12 (stereo not shown) [Example 266, 8-fluoro-4-[3-methoxybutoxy]quinoline] | 0 to 19 | 0 | 0 to 19 | 0 to 19 | 0 | 0 to 19 | 0 | 0 | 0 to 19 | 0 | 0 | 0 | 0 | –
C=CCCCOc1ccnc2c(F)cccc12 [Example 267, 8-fluoro-4-(4-pentenoxy)quinoline] | 20 to 89 | 0 | 90 to 100 | 0 to 19 | 100 | 90 to 100 | 100 | 0 | 90 to 100 | 0 | 40 | 20 | 0 | –
Fc1cccc2c(NCCCCc3ccccc3)ccnc12 [Example 268, 8-fluoro-N-(4-phenylbutyl)-4-quinolinamine] | 90 to 100 | 0 | 90 to 100 | 0 to 19 | 80 | 90 to 100 | 0 | 0 | 20 to 89 | 0 | 0 | 0 | 0 | –
